Like-named read-outs stand apart in the source and are kept apart here.
Test system: Hydractinia echinata
Experiment: Hydractinia echinata test system (HeTS): reduction of Cs+-induced metamorphosis of larvae
Format: in vivo
Settings: for EC50: Hydractinia echinata
Procedure: The average (C) concentrations of these values were calculated too. The MRC50 value calculations (Chicu et al.) result from the graphical representation of the metamorphosis variation, M (%), (Y axis) function of the xenobiotic’s concentration (mol/L) (X axis), where the metamorphosis decreases with the rise of the xenobiotic’s concentration. Thus, the MRC50 value represents the xenobiotic’s concentration (mol/L) necessary for a 50% decrease of metamorphosis, with respect to control.
For each concentration of substance experiments were performed in triplicate and were repeated at least twice.
Colonies of H. echinata (Biologische Anstalt, Helgoland, Germany) were used to obtain eggs and larvae. The culture medium was artificial seawater (980 mosmol, pH 8.2, 18 °C). In laboratory an artificial metamorphosis can be synchronically started by the introduction of Cs^+ ions or by using seawater without Mg^2+ ions; it then lasts only 24 h. Under the action of external stimulus of Cs^+ ions or Cs^+ ions together with the tested compounds, one part of larvae further lives as such and another one is metamorphosized to the polyp form. The evaluation of the influence of the tested substance is very clear this way, the proposed method being based on this aspect.
H. echinata larvae were exposed to seawater containing Cs^+ and simultaneously one of the test substances for 3 h. The percentage of animals that underwent metamorphosis (development into polyps) was determined after 24 h. […] We chose a concentration of inducers which caused about […] to three quarters of the larvae to metamorphose in order to have conditions which are highly sensitive against an inhibitory influence. […] This concentration was termed MRC50 (for Metamorphosis Reduction Concentration) and is similar to the effective EC50 concentration that gives half maximal effective response.

[1] = MRC50 in mol/L = concentration for 50% decrease of metamorphosis vs control, larvae exposed 3 h with Cs+, read after 24 h
[2] = MRC50 in mol/L = concentration for 50% decrease of metamorphosis vs control, larvae exposed 3 h with Cs+, read after 24 h, read-out: M: experimental Mlog(1/MRC50) (converted)
[3] = parent dye, Table 2, read-out: F(1+2+...)e experimental toxicity log(1/MRC50) (converted)

| SMILES | EC50 [2] | also measured |
| --- | --- | --- |
| Nc1ccc(N=Nc2ccc(-c3ccc(N=Nc4c(S(=O)(=O)[O-])cc5cc(S(=O)(=O)[O-])c(N=Nc6ccccc6)c(O)c5c4N)cc3)cc2)c(N)c1.[Na+].[Na+] [Compound 83, Direct Black 38] | – | M: experimental Mlog(1/MRC50) [1]: 4.26 |
| O=S(=O)([O-])c1cc(N=Nc2c(O)ccc3ccccc23)ccc1-c1ccc(N=Nc2c(O)ccc3ccccc23)cc1S(=O)(=O)[O-].[Na+].[Na+] [Compound 87, Acid Red 97] | – | M: experimental Mlog(1/MRC50) [1]: 4.11 |
| Cc1cc(-c2ccc(/N=N/c3ccc4c(S(=O)(=O)O)cc(S(=O)(=O)O)c(N)c4c3O)c(C)c2)ccc1/N=N/c1ccc2c(S(=O)(=O)O)cc(S(=O)(=O)O)c(N)c2c1O [Compound 89, Direct Blue 53 (Evans Blue)] | 7.41 µM | – |
| Cc1cc(-c2ccc(/N=N/c3c(S(=O)(=O)O)cc4cc(S(=O)(=O)O)cc(N)c4c3O)c(C)c2)ccc1/N=N/c1c(S(=O)(=O)O)cc2cc(S(=O)(=O)O)cc(N)c2c1O [Compound 90, Trypanblue (Direct Blue 14)] | 81.3 µM | – |
| COc1cc(-c2ccc(N=Nc3c(S(=O)(=O)[O-])cc4cc(S(=O)(=O)[O-])cc(N)c4c3O)c(OC)c2)ccc1N=Nc1c(S(=O)(=O)[O-])cc2cc(S(=O)(=O)[O-])cc(N)c2c1O.[Na+].[Na+].[Na+].[Na+] [Compound 91, Direct Blue 15 (Aizen Direct Sky Blue 5B)] | – | M: experimental Mlog(1/MRC50) [1]: 3.69 |
| COc1cc(-c2ccc(N=Nc3ccc4c(S(=O)(=O)[O-])cc(S(=O)(=O)[O-])c(N)c4c3O)c(OC)c2)ccc1N=Nc1ccc2c(S(=O)(=O)[O-])cc(S(=O)(=O)[O-])c(N)c2c1O.[Na+].[Na+].[Na+].[Na+] [Compound 92, Direct Blue 1] | – | M: experimental Mlog(1/MRC50) [1]: 3.79 |
| COc1cc(-c2ccc([N+]#N)c(OC)c2)ccc1[N+]#N [Compound 94, Fast Blue B] | – | M: experimental Mlog(1/MRC50) [1]: 4.30 |
| COc1cc(-c2ccc(-n3nc(-c4ccccc4)n[n+]3-c3ccccc3)c(OC)c2)ccc1-n1nc(-c2ccccc2)n[n+]1-c1ccccc1 [Compound 95, Tetrazolium Blue Chloride] | 91.2 µM | – |
| O=S(=O)([O-])c1cc(N=Nc2ccc(O)cc2)ccc1/C=C/c1ccc(N=Nc2ccc(O)cc2)cc1S(=O)(=O)[O-].[Na+].[Na+] [Compound 96, Brilliant Yellow] | – | M: experimental Mlog(1/MRC50) [1]: 3.84; F(1+2+...)e experimental toxicity log(1/MRC50) (parent dye, Table 2): 3.84 |
| O=S(=O)(O)c1cc(/N=N/c2ccc(O)cc2O)ccc1/C=C/c1ccc(/N=N/c2ccc(O)cc2O)cc1S(=O)(=O)O [Compound 97, 5-[(E)-2-(2,4-Dihydroxyphenyl)-diazen-1-yl]-2-[(E)-2-{4-[(E)-2-(2,4-dihydroxyphenyl)-diazen-1-yl]-2-sulfophenyl}ethenyl]-benzene-1-sulfonic acid] | 186 µM | EC50 [3]: 186 µM |
| O=C(O)c1cc(N=Nc2ccc(C=Cc3ccc(N=Nc4ccc(O)cc4C(=O)O)cc3S(=O)(=O)O)c(S(=O)(=O)O)c2)ccc1O [Compound 98, 2-{2-[4-(2-{4-[2-(3-Carboxy-4-hydroxy-phenyl)diazen-1-yl]-2-sulfophenyl}ethenyl)-3-sulfophenyl]diazen-1-yl}-5-hydroxybenzoic acid] | 407 µM | – |
| O=S(=O)(O)c1cc(N=Nc2c(O)ccc3ccccc23)ccc1C=Cc1ccc(N=Nc2c(O)ccc3ccccc23)cc1S(=O)(=O)O [Compound 100, 5-[2-(2-Hydroxy-naphthalen-1-yl)diazen-1-yl]-2-(2-{4-[2-(2-hydroxynaphthalen-1-yl)diazen-1-yl]-2-sulfophenyl}ethenyl)-benzene-1-sulfonic acid] | 28.2 µM | – |
| O=C(O)c1cc2ccccc2c(N=Nc2ccc(C=Cc3ccc(N=Nc4c(O)c(C(=O)O)cc5ccccc45)cc3S(=O)(=O)O)c(S(=O)(=O)O)c2)c1O [Compound 101, 4-{2-[4-(2-{4-[2-(3-Carboxy-2-hydroxy-naphthalen-1-yl)diazen-1-yl]-2-sulfophenyl}-ethenyl)-3-sulfo-phenyl]diazen-1-yl}-3-hydroxynaphthalene-2-carboxylic acid] | 135 µM | – |
| Nc1c(N=Nc2ccc(C=Cc3ccc(N=Nc4cc(S(=O)(=O)O)c5ccccc5c4N)cc3S(=O)(=O)O)c(S(=O)(=O)O)c2)cc(S(=O)(=O)O)c2ccccc12 [Compound 102, 4-Amino-3-{2-[4-(2-{4-[2-(1-amino-4-sulfonaphthalen-2-yl)diazen-1-yl]-2-sulfophenyl}ethenyl)-3-sulfophenyl]diazen-1-yl}naphthalene-1-sulfonic acid] | 182 µM | – |
| O=S(=O)([O-])c1cc(Nc2nc(Nc3ccccc3)nc(N(CCO)CCO)n2)ccc1/C=C/c1ccc(Nc2nc(Nc3ccccc3)nc(N(CCO)CCO)n2)cc1S(=O)(=O)[O-].[Na+].[Na+] [Compound 103, Fluorescent Brightener 28] | – | M: experimental Mlog(1/MRC50) [1]: 3.81 |
| O=C(Nc1ccc(/N=N/c2ccc(C(=O)O)c(O)c2)cc1)c1ccc(/N=N/c2ccccc2O)cc1 [Compound 104, 2-Hydroxy-4-[(E)-2-(4-{4-[(E)-2-(2-hydroxy-phenyl)diazen-1-yl]-benzamido}phenyl)-diazen-1-yl]benzoic acid] | 30.2 µM | EC50 [3]: 30.2 µM |
| O=C(Nc1ccc(/N=N/c2ccc(O)c(C(=O)O)c2)cc1)c1ccc(/N=N/c2cc(/N=N/c3cc(S(=O)(=O)O)ccc3O)c(O)cc2O)cc1 [Compound 105, 5-[(E)-2-(4-{4-[(E)-2-{2,4-dihydroxy-5-[(E)-2-(2-hydroxy-5-sulfo-phenyl)diazen-1-yl]-phenyl}diazen-1-yl]-benzamido}phenyl)-diazen-1-yl]-2-hydroxybenzoic acid] | 229 µM | – |
| O=C(Nc1ccc(N=Nc2ccc(O)c(C(=O)O)c2)cc1)c1ccc(N=Nc2ccc(O)c(C(=O)O)c2)cc1 [Compound 106, 5-[2-(4-{4-[2-(3-Carboxy-4-hydroxyphenyl)diazen-1-yl]benzamido}-phenyl)diazen-1-yl]-2-hydroxybenzoic acid] | 363 µM | EC50 [3]: 363 µM |
| Nc1ccc2c(O)c(N=Nc3ccc(NC(=O)c4ccc(N=Nc5ccc(O)c(C(=O)O)c5)cc4)cc3)c(S(=O)(=O)O)cc2c1 [Compound 107, 5-{2-[4-({4-[2-(6-Amino-1-hydroxy-3-sulfonaphthalen-2-yl)diazen-1-yl]-phenyl}carbamoyl)-phenyl]diazen-1-yl}-2-hydroxybenzoic acid] | 219 µM | – |
| Nc1ccc2cc(S(=O)(=O)O)c(N=Nc3ccc(NC(=O)c4ccc(N=Nc5ccc(O)c(C(=O)O)c5)cc4)cc3)c(O)c2c1 [Compound 108, 5-{2-[4-({4-[2-(7-Amino-1-hydroxy-3-sulfonaphthalen-2-yl)diazen-1-yl]-phenyl}carbamoyl)-phenyl]diazen-1-yl}-2-hydroxybenzoic acid] | 214 µM | – |
| Nc1c(N=Nc2ccc(NC(=O)c3ccc(N=Nc4cc(S(=O)(=O)O)c5ccccc5c4N)cc3)cc2)cc(S(=O)(=O)O)c2ccccc12 [Compound 109, 4-Amino-3-[2-(4-{4-[2-(1-amino-4-sulfonaphthalen-2-yl)-diazen-1-yl]-benzamido}phenyl)-diazen-1-yl]-naphthalene-1-sulfonic acid] | 166 µM | – |
| O=C(Nc1ccc(N=Nc2c(O)c(S(=O)(=O)O)cc3cc(S(=O)(=O)O)ccc23)cc1)c1ccc(N=Nc2c(O)c(S(=O)(=O)O)cc3cc(S(=O)(=O)O)ccc23)cc1 [Compound 110, 3-Hydroxy-4-[2-(4-{4-[2-(2-hydroxy-3,6-disulfonaphthalen-1-yl)diazen-1-yl]-benzamido}phenyl)-diazen-1-yl]-naphthalene-2,7-disulfonic acid] | 195 µM | – |
| Nc1ccc2cc(S(=O)(=O)O)c(N=Nc3ccc(NC(=O)c4ccc(N=Nc5c(S(=O)(=O)O)cc6cc(S(=O)(=O)O)cc(N)c6c5O)cc4)cc3)c(O)c2c1 [Compound 111, 5-Amino-3-{2-[4-({4-[2-(7-amino-1-hydroxy-3-sulfonaphthalen-2-yl)diazen-1-yl]phenyl}-carbamoyl)phenyl]diazen-1-yl}-4-hydroxy-naphthalene-2,7-disulfonic acid] | 263 µM | – |
| Cc1[nH]n(-c2ccc(S(=O)(=O)O)cc2)c(=O)c1N=Nc1ccc(NC(=O)c2ccc(N=Nc3c(C)[nH]n(-c4ccc(S(=O)(=O)O)cc4)c3=O)cc2)cc1 [Compound 112, 4-(3-Methyl-4-{2-[4-(4-{2-[5-methyl-3-oxo-2-(4-sulfophenyl)-2,3-dihydro-1H-pyrazol-4-yl]diazen-1-yl}-benzamido)phenyl]-diazen-1-yl}-5-oxo-2,5-dihydro-1H-pyrazol-1-yl)benzene-1-sulfonic acid] | 95.5 µM | – |
| Nc1c(N=Nc2ccc([N+](=O)[O-])cc2)c(S(=O)(=O)O)cc2cc(S(=O)(=O)O)c(N=Nc3ccc(NC(=O)c4ccc(N=Nc5ccc(O)c(C(=O)O)c5)cc4)cc3)c(O)c12 [Compound 113, 5-[2-(4-{[4-(2-{8-Amino-1-hydroxy-7-[2-(4-nitrophenyl)diazen-1-yl]-3,6-disulfonaphthalen-2-yl}diazen-1-yl)-phenyl]carbamoyl}-phenyl)diazen-1-yl]-2-hydroxybenzoic acid] | 112 µM | – |

Source: publication PMC6270994, “The Hydractinia echinata Test-System. III: Structure-Toxicity Relationship Study of Some Azo-, Azo-Anilide, and Diazonium Salt Derivatives” (Molecules, 2014)
